The subject of the assay is Lewis lung carcinoma i.m., BDF1 mice, T/C %. Nature of the assay: NCI In Vivo Anticancer Drug Screen. Data for tumor model Lewis Lung Carcinoma (intramuscular) in B6D2F1 (BDF1) mice. The method, boiled down:
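Compound given to mice with transplantable tumours; survival or tumour size compared against the vehicle control group, reported as T divided by C.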

Where “and” joins values, the source holds several entries; their conditions need not be identical. Identical values can stand only once. Inconclusive results are not listed.

`C[N+](C)(C)c1cc2c(nn1)Nc1ccccc1S2`: the T/C (endpoint: mean tumor weight (est.), dose: 1.06 mg/kg/injection, schedule: Q01DX011 (ip), vehicle: saline, higher = larger tumour) was 83 % of control; the T/C (endpoint: mean tumor weight (est.), dose: 2.12 mg/kg/injection, schedule: Q01DX011 (ip), vehicle: saline, higher = larger tumour) is 88 % of control; the T/C (endpoint: mean tumor weight (est.), dose: 4.25 mg/kg/injection, schedule: Q01DX011 (ip), vehicle: saline, higher = larger tumour) was 69 % of control; the T/C (endpoint: mean tumor weight (est.), dose: 8.5 mg/kg/injection, schedule: Q01DX011 (ip), vehicle: saline, higher = larger tumour) is 110 % of control; the T/C (endpoint: median survival time, dose: 1.06 mg/kg/injection, schedule: Q01DX011 (ip), vehicle: saline, higher = longer survival) was 103 % of control; the T/C (endpoint: median survival time, dose: 2.12 mg/kg/injection, schedule: Q01DX011 (ip), vehicle: saline, higher = longer survival) was 100 % of control. Also, the T/C by setting is: (endpoint: median survival time, dose: 4.25 mg/kg/injection, schedule: Q01DX011 (ip), vehicle: saline, higher = longer survival) 105 % of control; (endpoint: median survival time, dose: 8.5 mg/kg/injection, schedule: Q01DX011 (ip), vehicle: saline, higher = longer survival) 96 % of control.

Regarding `N=[N+]=CC(=O)CCC(NC(=O)C(CCC(=O)C=[N+]=N)NC(=O)CCC(N)C(=O)O)C(=O)O` (centres undefined), the T/C (endpoint: mean tumor weight, dose: 7.5 micrograms/kg/injection, schedule: Q01DX011 (ip), vehicle: water, higher = larger tumour) is 63 % of control; the T/C (endpoint: mean tumor weight, dose: 15.0 micrograms/kg/injection, schedule: Q01DX011 (ip), vehicle: water, higher = larger tumour) is 66 % of control; the T/C (endpoint: mean tumor weight, dose: 30.0 micrograms/kg/injection, schedule: Q01DX011 (ip), vehicle: water, higher = larger tumour) is 60 % of control; the T/C (endpoint: mean tumor weight, dose: 60.0 micrograms/kg/injection, schedule: Q01DX011 (ip), vehicle: water, higher = larger tumour) is 63 % of control; the T/C (endpoint: median survival time, dose: 0.1 mg/kg/injection, schedule: Q01DX011 (ip), vehicle: saline, higher = longer survival) was 88 % of control and 101 % of control; the T/C (endpoint: median survival time, dose: 0.2 mg/kg/injection, schedule: Q01DX011 (ip), vehicle: saline, higher = longer survival) was 106 % of control. The T/C is 101 % of control and 103 % of control (endpoint: median survival time, dose: 0.4 mg/kg/injection, schedule: Q01DX011 (ip), vehicle: saline, higher = longer survival); 87 % of control (endpoint: median survival time, dose: 0.8 mg/kg/injection, schedule: Q01DX011 (ip), vehicle: saline, higher = longer survival); 87 % of control (endpoint: median survival time, dose: 1.6 mg/kg/injection, schedule: Q01DX011 (ip), vehicle: saline, higher = longer survival); 104 % of control (endpoint: median survival time, dose: 7.5 micrograms/kg/injection, schedule: Q01DX011 (ip), vehicle: water, higher = longer survival); 97 % of control (endpoint: median survival time, dose: 12.5 micrograms/kg/injection, schedule: Q01DX009 (ip), vehicle: Klucel (hydroxypropylcellulose) (HPC), higher = longer survival); 106 % of control (endpoint: median survival time, dose: 15.0 micrograms/kg/injection, schedule: Q01DX011 (ip), vehicle: water, higher = longer survival). Besides, the T/C is 98 % of control (endpoint: median survival time, dose: 25.0 micrograms/kg/injection, schedule: Q01DX009 (ip), vehicle: Klucel (hydroxypropylcellulose) (HPC), higher = longer survival); 97 % of control (endpoint: median survival time, dose: 30.0 micrograms/kg/injection, schedule: Q01DX011 (ip), vehicle: water, higher = longer survival); 90 % of control (endpoint: median survival time, dose: 50.0 micrograms/kg/injection, schedule: Q01DX009 (ip), vehicle: Klucel (hydroxypropylcellulose) (HPC), higher = longer survival); 102 % of control (endpoint: median survival time, dose: 60.0 micrograms/kg/injection, schedule: Q01DX011 (ip), vehicle: water, higher = longer survival); 98 % of control (endpoint: median survival time, dose: 100.0 micrograms/kg/injection, schedule: Q01DX009 (ip), vehicle: Klucel (hydroxypropylcellulose) (HPC), higher = longer survival).

Consider `FC(F)c1nc2nc(Cl)c(Cl)nc2[nH]1`, for which the T/C reads like this: (endpoint: median survival time, dose: 4.0 mg/kg/injection, schedule: Q01DX011 (ip), vehicle: saline, higher = longer survival) 92 % of control; (endpoint: median survival time, dose: 64.0 mg/kg/injection, schedule: Q01DX011 (ip), vehicle: saline, higher = longer survival) 96 % of control.

`CC1([CH2][Hg][I])CS(=O)(=O)CC(C)([CH2][Hg][I])O1` (centres undefined): the T/C is, setting by setting: (endpoint: mean tumor weight (est.), dose: 2.5 mg/kg/injection, schedule: Q01DX011 (ip), vehicle: saline with Tween-80, higher = larger tumour) 82 % of control; (endpoint: mean tumor weight (est.), dose: 5.0 mg/kg/injection, schedule: Q01DX011 (ip), vehicle: saline with Tween-80, higher = larger tumour) 89 % of control; (endpoint: mean tumor weight (est.), dose: 10.0 mg/kg/injection, schedule: Q01DX011 (ip), vehicle: saline with Tween-80, higher = larger tumour) 49 % of control; (endpoint: mean tumor weight (est.), dose: 20.0 mg/kg/injection, schedule: Q01DX011 (ip), vehicle: saline with Tween-80, higher = larger tumour) 47 % of control; (endpoint: median survival time, dose: 2.5 mg/kg/injection, schedule: Q01DX011 (ip), vehicle: saline with Tween-80, higher = longer survival) 94 % of control; (endpoint: median survival time, dose: 5.0 mg/kg/injection, schedule: Q01DX011 (ip), vehicle: saline with Tween-80, higher = longer survival) 98 % of control. Also, the T/C is 112 % of control (endpoint: median survival time, dose: 10.0 mg/kg/injection, schedule: Q01DX011 (ip), vehicle: saline with Tween-80, higher = longer survival) and 100 % of control (endpoint: median survival time, dose: 20.0 mg/kg/injection, schedule: Q01DX011 (ip), vehicle: saline with Tween-80, higher = longer survival).

Consider `CC(=O)NNC(=O)c1ccccn1`, for which the T/C was 86 % of control (endpoint: median survival time, dose: 8.0 mg/kg/injection, schedule: Q01DX Z (ip), vehicle: other, higher = longer survival); 86 % of control (endpoint: median survival time, dose: 16.0 mg/kg/injection, schedule: Q01DX Z (ip), vehicle: other, higher = longer survival); 86 % of control (endpoint: median survival time, dose: 32.0 mg/kg/injection, schedule: Q01DX Z (ip), vehicle: other, higher = longer survival); 91 % of control (endpoint: median survival time, dose: 64.0 mg/kg/injection, schedule: Q01DX Z (ip), vehicle: other, higher = longer survival).

Values taken from PubChem BioAssay AID272 (DTP/NCI, 2004).
